Consider 32 compounds from ChEMBL document CHEMBL1154653, “Discovery and pharmacological characterization of aryl piperazine and piperidine ethers as dual acting norepinephrine reuptake inhibitors and 5-HT1A partial agonists” (Bioorg Med Chem Lett, 2009).

Series [1] has as its target T1, 5-hydroxytryptamine receptor 1A (Homo sapiens, UniProt P08908).
T1 sequence (P08908 whole entry): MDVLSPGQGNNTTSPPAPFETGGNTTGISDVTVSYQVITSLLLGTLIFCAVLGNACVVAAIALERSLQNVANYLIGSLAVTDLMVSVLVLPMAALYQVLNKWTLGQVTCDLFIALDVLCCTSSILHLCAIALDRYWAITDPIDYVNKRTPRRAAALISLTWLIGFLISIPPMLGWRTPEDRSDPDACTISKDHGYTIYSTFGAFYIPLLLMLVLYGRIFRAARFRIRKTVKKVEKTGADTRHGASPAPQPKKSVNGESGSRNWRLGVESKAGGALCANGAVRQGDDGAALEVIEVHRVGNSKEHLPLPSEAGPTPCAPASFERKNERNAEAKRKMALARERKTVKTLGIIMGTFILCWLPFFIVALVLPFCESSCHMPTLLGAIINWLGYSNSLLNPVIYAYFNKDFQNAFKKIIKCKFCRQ
Nature of the series: Partial agonist activity at human 5HT1A expressed in HEK293 cells by FLIPR assay. The class given is functional, cell-based.

The target of series [2] is T1, 5-hydroxytryptamine receptor 1A. Nature of the series: biochemical.
Description: Displacement of [3H]8-OH-DPAT from human 5HT1A receptor expressed in CHO cells
The target of series [3] is T2, Sodium-dependent dopamine transporter (Homo sapiens, UniProt Q01959). The class given is cell-based, HEK293.
In series [4] the target is T3, Sodium-dependent noradrenaline transporter (Homo sapiens, UniProt P23975). As to the kind of experiment: biochemical.
Description: Displacement of [125I]RTI-55 from human NET expressed in HEK293 cells
Series [5] has as its target T4, 5-hydroxytryptamine receptor 1A (Homo sapiens) (UniProt P08908).
T4 sequence (whole entry): T1 sequence (P08908 whole entry)
Nature of the series: Partial agonist activity at human 5HT1A expressed in HEK293 cells by FLIPR assay relative to 5HT. In kind it is functional, cell-based.

Series [6] concerns the target T5, Sodium-dependent serotonin transporter (Homo sapiens, UniProt P31645). As to the kind of experiment: biochemical.
Description: Displacement of [125I]RTI-55 from human SERT expressed in HEK293 cells
The target in series [7] is T3, Sodium-dependent noradrenaline transporter. As to the kind of experiment: Inhibition of norepinephrine uptake at human NET expressed in HEK293 cells. The class given is cell-based.
Series [8] has as its target T2, Sodium-dependent dopamine transporter. Nature of the series: Inhibition of dopamine uptake at human DAT expressed in HEK293 cells. In kind it is cell-based.
The target of series [9] is T5, Sodium-dependent serotonin transporter. As to the kind of experiment: Inhibition of [3H]5-HT uptake at human 5HTT expressed in HEK293 cells. In kind it is cell-based.
Series [10] in a line: Apparent intrinsic clearance in human liver microsomes. The class given is ADME, Microsome.
Series [11] concerns Rattus norvegicus. As to the kind of experiment: Ex vivo receptor occupancy at NET receptor in Sprague-Dawley rat brain at 10 mg/kg, sc by [3H]nisoxetine binding. The class given is functional. The following applies: route subcutaneous.
Series [12] concerns Rattus norvegicus. As to the kind of experiment: Ex vivo receptor occupancy at 5HT1A receptor in Sprague-Dawley rat brain at 10 mg/kg, sc by [3H]-OH-DAPT binding. In kind it is functional. The note with it: route subcutaneous.

SMILES strings stand for the structures.

T3 sequence (P23975 whole entry): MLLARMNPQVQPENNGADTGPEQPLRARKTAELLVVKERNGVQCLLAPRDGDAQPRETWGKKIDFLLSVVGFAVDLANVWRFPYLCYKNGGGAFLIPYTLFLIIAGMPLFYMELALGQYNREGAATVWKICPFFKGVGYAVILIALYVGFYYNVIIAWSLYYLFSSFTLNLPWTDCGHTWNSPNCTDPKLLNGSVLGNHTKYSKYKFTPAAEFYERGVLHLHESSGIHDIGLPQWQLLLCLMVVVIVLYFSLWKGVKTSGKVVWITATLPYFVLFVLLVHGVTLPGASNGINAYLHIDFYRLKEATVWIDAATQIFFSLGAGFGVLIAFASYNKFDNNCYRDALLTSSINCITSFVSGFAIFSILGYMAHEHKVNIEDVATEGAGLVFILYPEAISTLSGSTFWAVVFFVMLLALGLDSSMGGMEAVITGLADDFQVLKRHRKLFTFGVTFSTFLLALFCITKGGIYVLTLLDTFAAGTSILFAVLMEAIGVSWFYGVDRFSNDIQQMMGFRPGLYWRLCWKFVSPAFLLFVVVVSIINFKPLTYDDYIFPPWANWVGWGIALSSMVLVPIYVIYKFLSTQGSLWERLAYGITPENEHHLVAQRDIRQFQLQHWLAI
T2 sequence (Q01959 whole entry): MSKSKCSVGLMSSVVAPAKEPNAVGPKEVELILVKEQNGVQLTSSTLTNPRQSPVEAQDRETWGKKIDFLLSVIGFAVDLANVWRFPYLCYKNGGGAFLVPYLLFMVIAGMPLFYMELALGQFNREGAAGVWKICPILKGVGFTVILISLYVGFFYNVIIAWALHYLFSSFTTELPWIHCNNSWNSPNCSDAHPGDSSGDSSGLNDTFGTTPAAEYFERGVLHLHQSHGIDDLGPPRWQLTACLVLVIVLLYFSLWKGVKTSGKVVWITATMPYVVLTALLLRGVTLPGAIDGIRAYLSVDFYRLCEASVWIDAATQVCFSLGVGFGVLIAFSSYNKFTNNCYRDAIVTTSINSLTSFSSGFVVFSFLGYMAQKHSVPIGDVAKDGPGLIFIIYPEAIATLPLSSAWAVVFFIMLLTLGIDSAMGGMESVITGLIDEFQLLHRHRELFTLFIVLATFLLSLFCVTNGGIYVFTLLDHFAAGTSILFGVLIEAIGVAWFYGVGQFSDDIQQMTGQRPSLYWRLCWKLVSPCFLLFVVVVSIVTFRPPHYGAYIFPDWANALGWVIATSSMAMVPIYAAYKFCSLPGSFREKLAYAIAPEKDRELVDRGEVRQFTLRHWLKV
T5 sequence (P31645 whole entry): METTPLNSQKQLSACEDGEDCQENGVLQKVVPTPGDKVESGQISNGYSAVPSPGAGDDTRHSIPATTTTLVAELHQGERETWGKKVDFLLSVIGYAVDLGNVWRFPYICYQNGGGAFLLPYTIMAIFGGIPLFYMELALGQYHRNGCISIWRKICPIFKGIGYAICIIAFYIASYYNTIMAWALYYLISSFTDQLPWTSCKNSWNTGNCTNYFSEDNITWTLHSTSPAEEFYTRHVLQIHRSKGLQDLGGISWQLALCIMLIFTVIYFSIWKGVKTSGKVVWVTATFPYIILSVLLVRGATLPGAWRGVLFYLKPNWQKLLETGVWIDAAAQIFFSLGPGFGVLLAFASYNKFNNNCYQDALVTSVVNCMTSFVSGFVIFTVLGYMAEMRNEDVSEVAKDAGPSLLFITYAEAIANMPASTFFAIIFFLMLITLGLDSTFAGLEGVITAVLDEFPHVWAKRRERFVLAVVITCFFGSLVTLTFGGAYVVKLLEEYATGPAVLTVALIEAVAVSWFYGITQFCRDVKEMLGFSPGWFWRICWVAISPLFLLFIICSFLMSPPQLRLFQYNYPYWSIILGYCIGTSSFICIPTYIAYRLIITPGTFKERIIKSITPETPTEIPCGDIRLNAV

Usually EC50 stands for the midpoint of the concentration-response curve. Read a high EC50 as a less potent agent. As a reminder, the Ki is the equilibrium dissociation constant of an inhibitor or competing ligand from its target. Lower therefore signals a stronger hold on the target. In turn, `c1ccc(COc2ccccc2N2CCNCC2)cc1` yielded an EC50 in series [1] of more than 10000 nM. Further, in series [2], affinity was put at a Ki of 28 nM.

`Fc1cccc(Oc2ccccc2N2CCNCC2)c1`: the Ki in series [2] worked out at 9 nM.

With `Fc1ccc(Oc2ccccc2C2CCNCC2)cc1`, the Ki in series [2] was 117 nM.

Turning to `c1ccc(Oc2ccccc2N2CCNCC2)cc1`, the results for the Ki in [3], in series [2] and in series [4] were 4730 nM, 128 nM and 554 nM, respectively.

In [2], `Fc1ccc(Oc2ccccc2N2CCNCC2)cc1` displayed a Ki of 8 nM.

Take `Fc1cccc(OCc2ccccc2)c1C1CCNCC1`: the Ki in [2] came out at 364 nM.

By Emax is commonly meant the size of the effect at its maximum, as opposed to the concentration needed. In series [5], `Fc1cccc(Oc2ccccc2C2CCNCC2)c1` had an Emax of 51%.

Consider `Fc1ccccc1COc1ccccc1C1CCNCC1`, for which, in [2], affinity was put at a Ki of 47 nM.

`Fc1cccc(C2CCNCC2)c1OCc1ccccc1`: the Ki was 7370 nM in series [3], 606 nM in series [2], 9 nM in series [4] and 2970 nM in series [6].

`Fc1ccc(Oc2cc(F)c(F)cc2C2CCNCC2)cc1`: in series [2], the Ki is more than 4570 nM.

`Fc1ccccc1COc1ccccc1N1CCNCC1`: the Ki in series [3] is more than 10000 nM; in series [2], 31 nM; in [4], 526 nM; in [6] it was 978 nM.

With `c1ccc(Oc2ccccc2C2CCNCC2)cc1`, the Ki in [3] came out at 284 nM; in [2], 63 nM; in series [4], 416 nM; in [6] it was 1760 nM.

Regarding `c1ccc(COc2ccccc2C2CCNCC2)cc1`, the Ki in [3] worked out at 1000 nM; in series [2], 121 nM; in series [4], 76 nM; in [6], 74 nM.

On to `Fc1cccc(OCc2ccccc2C2CCNCC2)c1`, for which the Ki was 461 nM in [3], more than 1000 nM in [2], 1940 nM in [4] and 49 nM in [6].

Regarding `Cc1ccc(C2CCNCC2)c(Oc2cccc(F)c2)c1`, in series [2], the inhibition constant (Ki) was more than 4570 nM.

`c1ccc(OCc2ccccc2C2CCNCC2)cc1`: the Ki in series [3] was 396 nM; in series [2], more than 1000 nM; in series [4] it was 1710 nM; in [6], 364 nM.

Turning to `Cc1ccc(C2CCNCC2)c(Oc2ccc(F)cc2)c1`, the Ki in series [3] was 1680 nM; in series [2], more than 4570 nM; in series [4], 115 nM; in series [6] it was 427 nM.

On to `Fc1cccc(OCc2ccccc2N2CCNCC2)c1F`, for which, in series [2], the Ki was 101 nM.

On to `c1ccc(OCc2ccccc2N2CCNCC2)cc1`, for which the Ki in series [3] came out at 701 nM; in series [2], 189 nM; in [6], 780 nM.

On to `Cc1ccc(F)c(Oc2ccccc2C2CCNCC2)c1`, for which the Ki in series [3] was 1080 nM; in series [2] it was 57 nM; in series [4] it was 3 nM; in series [6] it was 26 nM.

In general, microsomal CLint refers to the rate of metabolic loss divided by the concentration. Turning to `Fc1cccc(C2CCNCC2)c1Oc1ccccc1`, the Ki in series [3] is 239 nM; in [2], 20 nM; in series [4] it was 1370 nM; in series [6], 2330 nM. Further, the concentration for a half-maximal effect (EC50) in [1] worked out at 877 nM; in [7], 358 nM; in series [8], 982 nM; in series [9], 1760 nM. The Emax in [5] was 35%. The microsomal CLint in series [10] is 15 µL/min/mg.

Regarding `O=C1C(Cc2ccccc2N2CCNCC2)SCCN1c1ccc(Cl)c(Cl)c1` (centres undefined), the Ki in series [3] came out at 87 nM; in series [2], 9 nM; in series [4] it was 5 nM; in series [6], 81 nM.

In series [2], `c1ccc(N2CCNCC2)c(COc2ccccc2C2CC2)c1` came in with a Ki of 466 nM.

In turn, `Clc1cccc(Oc2ccccc2C2CCNCC2)c1` yielded an EC50 in [1] of 1150 nM. This compound came in with an Emax in series [5] of 44%. In series [2], this compound displayed a Ki of 5 nM.

Consider `Fc1ccc(OCc2ccc(Cl)c(Cl)c2)c(C2CCNCC2)c1`, for which the Ki in [3] came out at 452 nM; in series [2], 1160 nM; in [4], 20 nM; in series [6], 2 nM.

`Fc1ccc(COc2ccccc2C2CCNCC2)cc1`: affinity in series [2] was put at a Ki of 77 nM.

Regarding `O=C1/C(=C/c2ccccc2N2CCNCC2)SCCN1c1ccc(F)cc1F`, the Ki in [3] came to 1360 nM; in series [2] it was 4 nM; in series [4], 650 nM; in [6], 98 nM.

On to `Fc1cccc(Oc2ccccc2)c1C1CCNCC1`, for which the inhibitory constant (Ki) was 45 nM in series [3], 128 nM in series [2], 170 nM in series [4] and 706 nM in series [6].

For the compound `Fc1ccc(COc2ccc(F)cc2C2CCNCC2)cc1`, in series [2], the Ki was 2210 nM.

In the case of `Fc1cccc(OCc2ccccc2N2CCNCC2)c1`, the Ki was more than 2000 nM in series [3], 116 nM in series [2], 104 nM in series [4] and 17 nM in series [6].

As to `Fc1ccc(COc2ccc(Cl)cc2C2CCNCC2)cc1`, the Ki in series [3] is 5530 nM; in series [2], more than 1000 nM; in [4] it was 6 nM; in series [6], 40 nM.

In [1], `Fc1cccc(Oc2cccc(F)c2C2CCNCC2)c1` came in with a concentration for a half-maximal effect (EC50) of 137 nM. The compound further had an Emax in series [5] of 74%. Also, the figures for the Activity in the series with Rattus norvegicus [11] and with Rattus norvegicus [12] were 80% and 77%, respectively. In series [2], this compound yielded a Ki of 21 nM.
